How the values were obtained:
[1] = molecular target: Recombinant human JAK2 (catalytic domain) (Homo sapiens (Human), UniProt O60674); experiment: JAK2 inhibition assay; type: biochemical; conditions: average ± standard error of the mean; 7.5 μM ATP
Method: Recombinant human JAK2 (catalytic domain, amino acids 866-1154; catalog number PV4210) was purchased from Invitrogen. 0.0125 mU of JAK2 was incubated with 25 nM Ulight-JAK1(tyr1023) peptide (Perkin Elmer catalog number TRF0121) in kinase reaction buffer (41.66 mM HEPES pH7.0, 0.016% Triton X-100, 12.5 mM MgCl2, 3.33 mM DTT, 7.5 μM ATP) with or without 4 μL containing test compound or vehicle (DMSO, 1% final concentration), in a total volume of 20 μL, in a white 384 Luminotrac 200 plate (Greiner, catalog number 781075). […] Readout is performed using the Envision with excitation at 320nm and measuring emission at 615 nm (Perkin Elmer). Kinase activity was calculated by subtracting relative fluorescence units (RFU) obtained in the presence of a positive control inhibitor (10 μM staurosporine) from RFU obtained in the presence of vehicle. The ability of a test compound to inhibit this activity was determined as: Percentage inhibition=((RFU determined for sample with test compound present−RFU determined for sample with positive control inhibitor) divided by (RFU determined in the presence of vehicle−RFU determined for sample with positive control inhibitor))*100. […]

JAK3 = JAK3 (Homo sapiens (Human), UniProt P52333); experiment: JAK3 Ki determination assay; type: biochemical; conditions: Lineweaver-Burk; polyGT substrate, 33P readout
JAK3, sequence (P52333 whole entry): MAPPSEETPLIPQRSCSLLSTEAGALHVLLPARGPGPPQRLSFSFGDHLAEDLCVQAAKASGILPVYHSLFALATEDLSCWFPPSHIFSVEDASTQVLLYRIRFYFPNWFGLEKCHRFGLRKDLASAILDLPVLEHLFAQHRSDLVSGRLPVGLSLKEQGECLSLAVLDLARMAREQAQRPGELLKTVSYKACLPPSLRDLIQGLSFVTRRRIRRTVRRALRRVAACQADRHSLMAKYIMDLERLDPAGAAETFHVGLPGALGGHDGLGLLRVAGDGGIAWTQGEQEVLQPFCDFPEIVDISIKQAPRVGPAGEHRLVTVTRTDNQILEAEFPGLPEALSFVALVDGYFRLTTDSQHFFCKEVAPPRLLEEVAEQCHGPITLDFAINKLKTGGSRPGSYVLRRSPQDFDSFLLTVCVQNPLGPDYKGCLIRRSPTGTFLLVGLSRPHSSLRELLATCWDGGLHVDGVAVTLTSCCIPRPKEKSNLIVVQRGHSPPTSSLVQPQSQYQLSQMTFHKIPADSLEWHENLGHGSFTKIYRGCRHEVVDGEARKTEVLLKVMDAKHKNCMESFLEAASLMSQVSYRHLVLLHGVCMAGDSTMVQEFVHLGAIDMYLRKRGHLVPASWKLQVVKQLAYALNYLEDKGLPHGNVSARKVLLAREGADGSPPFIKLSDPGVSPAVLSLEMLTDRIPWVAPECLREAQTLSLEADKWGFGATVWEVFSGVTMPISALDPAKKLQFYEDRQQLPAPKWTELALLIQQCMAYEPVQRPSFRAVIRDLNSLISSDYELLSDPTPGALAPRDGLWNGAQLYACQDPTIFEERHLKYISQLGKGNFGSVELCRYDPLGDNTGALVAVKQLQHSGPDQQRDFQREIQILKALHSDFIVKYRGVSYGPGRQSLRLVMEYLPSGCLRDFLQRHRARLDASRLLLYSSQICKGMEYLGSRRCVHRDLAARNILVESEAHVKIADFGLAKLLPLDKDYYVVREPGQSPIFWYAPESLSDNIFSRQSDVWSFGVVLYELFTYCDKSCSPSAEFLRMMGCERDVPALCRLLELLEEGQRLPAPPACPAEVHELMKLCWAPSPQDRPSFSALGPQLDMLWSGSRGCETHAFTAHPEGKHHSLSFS
Text: For the determination of Ki, different amounts of inhibitor were mixed with the enzyme and the enzymatic reaction was followed as a function of ATP concentration.

[2] = Microsomal stability, rat; type: in vitro ADME; conditions: rat liver microsomes, 3 μM compound, 37° C.
Method: A 10 mM stock solution of compound in DMSO was diluted 1000 fold in a 182 mM phosphate buffer pH7.4 in a 96 deep well plate (Greiner, Cat no. 780285) and pre-incubated at 37° C.
40 μL of deionised water was added to a well of a polypropylene Matrix 2D barcode labelled storage tube (Thermo Scientific) and pre-incubated at 37° C.
A Glucose-6-phophate-dehydrogenase (G6PDH) working stock solution was prepared in 182 mM phosphate buffer pH7.4 and placed on ice before use. A co-factor containing MgCl2, glucose-6-phosphate and NADP+ was prepared in deionised water and placed on ice before use. […]
These plates were sealed with sealing mats (MA96RD-04S) of www.kinesis.co.uk and samples were measured at room temperature on LCMS (ZQ 1525 from Waters) under optimized conditions using Quanoptimize to determine the appropriate mass of the parent molecule.
The samples were analyzed on LCMS with a flow rate of 1 mL/min. […]
Peak area from the parent compound at time 0 was considered to be 100% remaining. The percentage remaining after 1 hour incubation was calculated from time 0 and was calculated as the percentage remaining. […]
The data on microsomal stability are expressed as a percentage of the total amount of compound remaining after 60 minutes.

TNF release = experiment: Septic shock model (LPS induced TNF release); type: in vivo, mouse; conditions: 30 mg/kg po, LPS ip, statistically significant
Method: Injection of lipopolysaccharide (LPS) induces a rapid release of soluble tumour necrosis factor (TNF-alpha) into the periphery. This model is used to analyse prospective blockers of TNF release in vivo.
Six BALB/cJ female mice (20 g) per group are treated at the intended dosing once, po. Thirty minutes later, LPS (15 μg/kg; E. Coli serotype 0111:B4) is injected ip. Ninety minutes later, mice are euthanized and blood is collected. Circulating TNF alpha levels are determined using commercially available ELISA kits. Dexamethasone (5 μg/kg) is used as a reference anti-inflammatory compound. Selected compounds are tested at one or multiple doses, e.g. 3 and/or 10 and/or 30 mg/kg, po.

Recombinant human JAK2 (catalytic domain), sequence (O60674 849-1124): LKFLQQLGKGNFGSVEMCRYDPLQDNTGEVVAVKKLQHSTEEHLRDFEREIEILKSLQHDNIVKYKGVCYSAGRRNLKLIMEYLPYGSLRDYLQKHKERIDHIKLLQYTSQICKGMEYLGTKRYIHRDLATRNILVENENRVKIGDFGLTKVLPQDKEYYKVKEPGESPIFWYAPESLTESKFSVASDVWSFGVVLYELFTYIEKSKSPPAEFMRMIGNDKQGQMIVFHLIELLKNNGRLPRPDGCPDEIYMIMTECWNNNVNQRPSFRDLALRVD

CC1(C)CN(C(=O)c2ccc(-c3cccc4nc(NC(=O)C5CC5)nn34)cc2)C1 [Compound 1, Cyclopropanecarboxylic acid{5-[4-(3,3-dimethyl-azetidine-1-carbonyl)-phenyl]-[1,2,4]triazolo[1,5-a]pyridin-2-yl}-amide]
IC50 [1]: 67 ± 5 nM | Ki (JAK3): 188 nM | Microsomal stability, percentage of compound remaining after 60 minutes, Rat [2]: 76-100% | reduction in the TNF release (TNF release): > 50%
